Experimental data taken from PMC12402003 (Frontiers in Nutrition, 2025).

Columns and labels:
Caco-2 cells = experiment: MTT cell viability assay in Caco-2 cells; type: cell-based, human; conditions: 24 h; for cell viability: 100 μM, compared to control (0 μM); for change in cell vitality: concentrations below 50 μM
Method: Cell culture: […] Subsequently, the supernatant was removed and 200 μL of MTT solution (0.1 mg/mL) was added to each well to incubate for an additional 4 h (200 μL for Caco-2 cells, 100 μL for HepG2 cells, both at a concentration of 0.1 mg/mL). Finally, formazan crystals were completely dissolved in DMSO in a shaker for 10 min and the absorbance was measured at a wavelength of 490 nm using a microplate absorbance reader (FLUOstar Omera, BMG Labtech, Germany). Cell viability was determined using the following equation: Cell viability (%) = (OD sample/OD control) × 100, where OD is the optical density. The absorbance values for drug fractions […], catechin, and […]-catechin) were compared to those of untreated culture (control). Each treatment was set up in triplicate.

P-gp = P-gp (Homo sapiens, UniProt P08183); experiment: Bidirectional Caco-2 transport with verapamil (P-gp inhibitor); conditions: for ER (efflux rate) / Papp (AP → BL) / Papp (BL → AP): 50 μmol/L, + Ver (verapamil 100 μM); for substrate of P-gp: bidirectional assay with verapamil 100 μM
Method: (§1) Transport assay: The monolayers were pre-incubated at 37°C for 30–40 min with 5% CO2 in a pre-warmed media, which contained Hanks Balanced Salt solution (HBSS, BioWhittaker), HEPES buffer and D-glucose. For the transport of apical (AP) side to basolateral (BL) side, the media was removed after pre-incubation and 0.5 mL of polyphenols was added to the AP side. 1.5 mL of HBSS were added to the BL side. Then 200 μL of samples were taken from the BL side at 30, 60, 90, 120 and 150 min, respectively. The BA sample volumes removed were therewith replenished with same volumes of the HBSS solution. For the transport of BL to AP, polyphenols were added to BL and samples were taken from AP at a series of time points as above mentioned. The TEER was measured from the beginning to the end of the assay.
(§2) Caco-2 cells (1×10^5 cells/well) were cultured in 96-well plates for 24 h until differentiation, with a TEER value exceeding 400 Ω·cm^2. Bidirectional transport experiments from AP to BL or from BL to AP were performed as mentioned in the transport assay. The apparent permeability coefficients, cumulative release and initial concentrations and efflux rates were determined. In brief, the total transport time was set to 150 min. For AP to BL transport, 0.5 mL of polyphenols were added to AP with 1.5 mL of HBSS to the BL side. 200 μL of samples were collected from BL at different time points (30, 60, 90, 120, and 150 min). For BL to AP transport, polyphenols were added to BL and samples were collected from AP as the mentioned above.

Plin1 = experiment: Western blot of Plin1 protein in Caco-2/HepG2 co-culture; type: cell-based, human; conditions: OA-induced co-culture, 50 μM, 24 h; compared vs. OA
Method: (§3) Cells from the co-culture model were lysed and supernatants were collected. The protein concentrations were determined using the BCA Protein Quantitation Kit. Then electrophoresis of samples was conducted using a SDS-PAGE kit (Beyotime Biotechnology) following the manufacturer’s instructions and transferred to poly-vinylidene difluoride (PVDF) membrane. Next, membranes were incubated in 5% nonfat milk to block non-specific antibody binding for 30 min at room temperature and followed by incubating with primary antibodies and secondary antibodies. Chemiluminescence based-images of the blots were acquired using ImageQuant LAS 500 system (GE, United States). Protein bands were quantified using ImageJ (version 1.53a) software. The changes in expression levels of these proteins detected finally are used to evaluate the sample’s effect on lipid metabolism.

HepG2 cells = experiment: Oil Red O lipid content in OA-induced high-fat HepG2 cells; conditions: 1 mM OA-induced HepG2 cells, 50 μM, 24 h
Method: For the lipid content assay: The cells were treated with 1 mM oleic acid (OA). […] The absorbance value was recorded at 530 nm using a microplate absorbance reader. Isopropanol solvent was used as a control ([14]).

Fabp4 = experiment: Western blot of Fabp4 protein in Caco-2/HepG2 co-culture; type: cell-based, human; conditions: OA-induced co-culture, 50 μM, 24 h; compared vs. OA
Method: as §3

Pparγ = experiment: Western blot of PPARγ protein in Caco-2/HepG2 co-culture; type: cell-based, human; conditions: OA-induced co-culture, 50 μM, 24 h; compared vs. OA
Method: as §3

MRP2 = MRP2 (Homo sapiens, UniProt Q92887); experiment: Bidirectional Caco-2 transport with probenecid (MRP inhibitor); conditions: for ER (efflux rate) / Papp (AP → BL) / Papp (BL → AP): 50 μmol/L, + Prob (probenecid 1 mM); for substrate of MRP2: bidirectional assay with probenecid 1 mM
Method: as §1, §2

MRP2, sequence (Q92887 whole entry): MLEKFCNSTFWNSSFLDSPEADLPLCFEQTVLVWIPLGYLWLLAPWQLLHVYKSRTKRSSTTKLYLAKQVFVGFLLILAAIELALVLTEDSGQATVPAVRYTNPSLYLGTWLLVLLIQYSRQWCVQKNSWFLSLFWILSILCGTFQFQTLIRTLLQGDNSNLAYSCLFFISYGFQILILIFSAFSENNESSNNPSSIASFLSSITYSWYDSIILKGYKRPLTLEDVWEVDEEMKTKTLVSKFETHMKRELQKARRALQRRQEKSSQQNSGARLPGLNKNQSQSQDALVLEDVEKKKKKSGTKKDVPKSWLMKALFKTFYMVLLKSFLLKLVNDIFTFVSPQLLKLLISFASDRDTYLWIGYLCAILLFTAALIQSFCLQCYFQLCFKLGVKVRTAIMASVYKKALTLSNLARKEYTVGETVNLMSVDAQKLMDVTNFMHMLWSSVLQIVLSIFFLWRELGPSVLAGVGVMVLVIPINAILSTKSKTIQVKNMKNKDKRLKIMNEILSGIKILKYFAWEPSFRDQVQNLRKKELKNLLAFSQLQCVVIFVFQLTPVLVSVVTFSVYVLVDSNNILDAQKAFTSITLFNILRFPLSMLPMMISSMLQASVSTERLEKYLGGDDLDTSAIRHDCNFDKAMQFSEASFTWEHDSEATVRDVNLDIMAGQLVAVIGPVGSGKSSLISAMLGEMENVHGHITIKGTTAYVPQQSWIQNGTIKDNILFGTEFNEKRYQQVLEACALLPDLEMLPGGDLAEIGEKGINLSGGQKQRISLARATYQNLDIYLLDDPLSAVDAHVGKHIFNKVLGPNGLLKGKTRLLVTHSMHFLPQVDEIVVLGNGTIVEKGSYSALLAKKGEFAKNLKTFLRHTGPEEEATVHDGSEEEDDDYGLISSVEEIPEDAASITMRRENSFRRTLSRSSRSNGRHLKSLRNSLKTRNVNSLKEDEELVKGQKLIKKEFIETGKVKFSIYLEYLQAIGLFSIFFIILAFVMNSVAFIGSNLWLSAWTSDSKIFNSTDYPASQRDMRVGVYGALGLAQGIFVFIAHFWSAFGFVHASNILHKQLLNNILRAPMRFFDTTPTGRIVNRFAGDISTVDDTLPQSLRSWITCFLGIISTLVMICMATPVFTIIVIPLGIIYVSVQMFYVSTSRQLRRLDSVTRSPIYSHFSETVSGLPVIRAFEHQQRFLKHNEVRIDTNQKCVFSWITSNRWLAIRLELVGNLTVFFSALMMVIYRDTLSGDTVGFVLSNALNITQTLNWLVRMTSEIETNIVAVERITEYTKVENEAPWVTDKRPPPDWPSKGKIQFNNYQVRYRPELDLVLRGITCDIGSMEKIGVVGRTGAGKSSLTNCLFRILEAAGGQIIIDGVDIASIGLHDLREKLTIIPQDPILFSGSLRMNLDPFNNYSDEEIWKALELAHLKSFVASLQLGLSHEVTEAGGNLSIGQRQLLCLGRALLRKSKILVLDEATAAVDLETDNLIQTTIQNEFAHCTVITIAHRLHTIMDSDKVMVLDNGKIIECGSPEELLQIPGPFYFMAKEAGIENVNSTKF
P-gp, sequence (P08183 whole entry): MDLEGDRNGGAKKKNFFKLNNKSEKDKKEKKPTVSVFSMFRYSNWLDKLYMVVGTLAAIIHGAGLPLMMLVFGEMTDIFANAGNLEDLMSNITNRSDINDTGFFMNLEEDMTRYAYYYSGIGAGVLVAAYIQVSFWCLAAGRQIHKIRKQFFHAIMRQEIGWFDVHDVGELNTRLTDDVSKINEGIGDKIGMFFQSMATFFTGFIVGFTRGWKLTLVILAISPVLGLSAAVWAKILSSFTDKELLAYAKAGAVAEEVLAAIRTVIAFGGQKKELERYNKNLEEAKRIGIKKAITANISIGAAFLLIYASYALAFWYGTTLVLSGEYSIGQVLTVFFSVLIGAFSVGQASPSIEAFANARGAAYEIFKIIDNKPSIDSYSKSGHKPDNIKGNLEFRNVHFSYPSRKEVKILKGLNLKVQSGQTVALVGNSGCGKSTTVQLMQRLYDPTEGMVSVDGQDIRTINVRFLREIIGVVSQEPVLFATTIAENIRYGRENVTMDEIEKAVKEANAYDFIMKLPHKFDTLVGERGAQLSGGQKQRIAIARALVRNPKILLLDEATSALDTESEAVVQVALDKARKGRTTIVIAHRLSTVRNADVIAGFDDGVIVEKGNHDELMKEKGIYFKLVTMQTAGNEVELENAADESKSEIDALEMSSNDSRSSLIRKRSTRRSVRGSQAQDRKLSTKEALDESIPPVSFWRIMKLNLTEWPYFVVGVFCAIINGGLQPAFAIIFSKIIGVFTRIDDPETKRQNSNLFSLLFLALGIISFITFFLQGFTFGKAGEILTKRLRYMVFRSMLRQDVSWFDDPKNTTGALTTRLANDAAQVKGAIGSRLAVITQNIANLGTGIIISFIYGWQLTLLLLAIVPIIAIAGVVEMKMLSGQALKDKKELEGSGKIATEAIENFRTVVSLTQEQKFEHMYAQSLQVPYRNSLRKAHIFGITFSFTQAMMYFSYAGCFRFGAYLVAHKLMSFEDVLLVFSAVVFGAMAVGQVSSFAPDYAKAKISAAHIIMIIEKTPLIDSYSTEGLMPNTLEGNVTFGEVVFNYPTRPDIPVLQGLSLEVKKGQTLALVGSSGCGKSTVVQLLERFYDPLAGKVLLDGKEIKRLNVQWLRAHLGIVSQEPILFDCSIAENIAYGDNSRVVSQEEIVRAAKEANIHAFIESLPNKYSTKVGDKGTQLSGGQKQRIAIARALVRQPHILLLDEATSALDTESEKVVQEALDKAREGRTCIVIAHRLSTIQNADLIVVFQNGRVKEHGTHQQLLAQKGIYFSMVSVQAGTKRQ

Compound	cell viability (Caco-2 cells) [%]	change in cell vitality (Caco-2 cells)	ER (efflux rate) (P-gp; 30 min)	Papp (AP → BL) (P-gp; 30 min)	Papp (BL → AP) (P-gp; 30 min)	ER (efflux rate) (P-gp; 60 min)	Papp (AP → BL) (P-gp; 60 min)	Papp (BL → AP) (P-gp; 60 min)	ER (efflux rate) (P-gp; 90 min)	Papp (AP → BL) (P-gp; 90 min)	Papp (BL → AP) (P-gp; 90 min)	ER (efflux rate) (P-gp; 120 min)	Papp (AP → BL) (P-gp; 120 min)	Papp (BL → AP) (P-gp; 120 min)	ER (efflux rate) (P-gp; 150 min)	Papp (AP → BL) (P-gp; 150 min)	Papp (BL → AP) (P-gp; 150 min)	substrate of P-gp (P-gp)	Plin1 protein expression level (densitometry) (Plin1)	decrease of lipid absorption rate (Oil Red O lipid droplets) (HepG2 cells) [%]	other results
OC[C@H]1O[C@@H](Oc2cc3c(O)cc(O)cc3[o+]c2-c2ccc(O)c(O)c2)[C@H](O)[C@@H](O)[C@@H]1O [C3G, Cyanidin-3-O-glucoside]	80	No significant changes	0.48	11.4 ± 0.49 ×10^−5 cm /s	5.49 ± 0.66 ×10^−5 cm /s	0.54	5.73 ± 0.21 ×10^−5 cm /s	3.07 ± 0.2 ×10^−5 cm /s	0.51	4.05 ± 0.12 ×10^−5 cm /s	2.09 ± 0.03 ×10^−5 cm /s	0.54	3.16 ± 0.17 ×10^−5 cm /s	1.71 ± 0.15 ×10^−5 cm /s	0.51	2.47 ± 0.14 ×10^−5 cm /s	1.21 ± 0.28 ×10^−5 cm /s	not substrates	1.12	22.35	Fabp4 protein expression level (densitometry) (Fabp4): 1.23; PPARγ protein expression level (densitometry) (Pparγ): 1.03; ER (efflux rate) (MRP2; 30 min): 0.63; Papp (AP → BL) (MRP2; 30 min): 8.47 ± 0.39 ×10^−5 cm /s; Papp (BL → AP) (MRP2; 30 min): 5.31 ± 0.72 ×10^−5 cm /s; ER (efflux rate) (MRP2; 60 min): 0.61; Papp (AP → BL) (MRP2; 60 min): 4.55 ± 0.09 ×10^−5 cm /s; Papp (BL → AP) (MRP2; 60 min): 2.79 ± 0.37 ×10^−5 cm /s; ER (efflux rate) (MRP2; 90 min): 0.52; Papp (AP → BL) (MRP2; 90 min): 3.12 ± 0.02 ×10^−5 cm /s; Papp (BL → AP) (MRP2; 90 min): 1.62 ± 0.08 ×10^−5 cm /s; ER (efflux rate) (MRP2; 120 min): 0.53; Papp (AP → BL) (MRP2; 120 min): 2.45 ± 0.03 ×10^−5 cm /s; Papp (BL → AP) (MRP2; 120 min): 1.29 ± 0.09 ×10^−5 cm /s; ER (efflux rate) (MRP2; 150 min): 0.56; Papp (AP → BL) (MRP2; 150 min): 1.83 ± 0.09 ×10^−5 cm /s; Papp (BL → AP) (MRP2; 150 min): 1.06 ± 0.04 ×10^−5 cm /s; substrate of MRP2 (MRP2): not substrates
O.Oc1cc(O)c2c(c1)O[C@H](c1ccc(O)c(O)c1)[C@@H](O)C2 [catechin]	80	No significant changes	0.57	11.2 ± 0.23 ×10^−5 cm /s	6.38 ± 0.37 ×10^−5 cm /s	0.57	6.02 ± 0.37 ×10^−5 cm /s	3.45 ± 0.29 ×10^−5 cm /s	0.51	3.98 ± 0.31 ×10^−5 cm /s	2.05 ± 0.56 ×10^−5 cm /s	0.52	3.25 ± 0.52 ×10^−5 cm /s	1.68 ± 0.29 ×10^−5 cm /s	0.52	2.54 ± 0.17 ×10^−5 cm /s	1.32 ± 0.34 ×10^−5 cm /s	not substrates	1.14	31.24	Fabp4 protein expression level (densitometry) (Fabp4): 1.23; PPARγ protein expression level (densitometry) (Pparγ): 1.08; ER (efflux rate) (MRP2; 30 min): 0.58; Papp (AP → BL) (MRP2; 30 min): 9.19 ± 0.53 ×10^−5 cm /s; Papp (BL → AP) (MRP2; 30 min): 5.36 ± 0.52 ×10^−5 cm /s; ER (efflux rate) (MRP2; 60 min): 0.56; Papp (AP → BL) (MRP2; 60 min): 4.46 ± 0.36 ×10^−5 cm /s; Papp (BL → AP) (MRP2; 60 min): 2.50 ± 0.27 ×10^−5 cm /s; ER (efflux rate) (MRP2; 90 min): 0.52; Papp (BL → AP) (MRP2; 90 min): 1.64 ± 0.37 ×10^−5 cm /s; ER (efflux rate) (MRP2; 120 min): 0.51; Papp (AP → BL) (MRP2; 120 min): 2.48 ± 0.19 ×10^−5 cm /s; Papp (BL → AP) (MRP2; 120 min): 1.27 ± 0.27 ×10^−5 cm /s; ER (efflux rate) (MRP2; 150 min): 0.48; Papp (AP → BL) (MRP2; 150 min): 1.93 ± 0.49 ×10^−5 cm /s; Papp (BL → AP) (MRP2; 150 min): 0.98 ± 0.34 ×10^−5 cm /s; substrate of MRP2 (MRP2): not substrates
